One may read the IC50 as the concentration at which inhibition is half-maximal. Lower therefore signals greater potency.

Entries after “also recorded” stand apart in the source; their conditions may differ.

One data set relates to U87MG-shSPARC cells. Description: Cellular cytotoxicity, Cell Counting Kit-8 (CCK-8) assay. To be noted: 72 h, CCK-8, n=5, Table 1. The data set is classed as cell-based, Human. The method, then:
(§1) Human glioma cells (U87MG) were obtained from American Type Culture Collection (ATCC; Manassas, VA, USA). Low SPARC-expressing U87MG cells, U87MG-shSPARC, were established from a previous study.
(§2) (1) U87MG and U87MG-shSPARC cells were added to 96-well plates (4000 cells/well). […] Cell viability was analyzed using a Cell Counting Kit-8 (CCK-8, Dojindo Molecular Technologies, Tokyo, Japan) assay according to the manufacturer's protocols.
For orientation: Tetrazolium assays rely on reduction of a dye to a coloured formazan, in cell work by metabolically active cells.

The subject of a further data set is U87MG tumor xenograft. Description: Xenograft tumor model, anti-tumor effect in vivo. Further details: species or system BALB/c nude mice. The conditions noted are these: for weight of mice: xenograft tumor models (U87MG and U87MG-shSPARC), FIG. 5C, 5D, 3 mg/kg IV 7 times. The procedure:
BALB/c nude mice (5-week-old, male) were purchased from Orient Bio Inc. (Seongnam, Korea). U87MG or U87MG-shSPARC cells (2×10^6 cells/site) were injected subcutaneously into the right lower flanks.
(§3) The tumor size and body weight of each mouse were recorded every other day. Tumor volume was calculated using the equation V=0.5×L×W^2, where L represents tumor length and W represents tumor width.

Data set [1] is described as follows: TUNEL assay of kidney sections. Type of data set: in vivo, mice. The conditions noted are these: FIGS. 8A and 8B. An excerpt: The tumor and kidney were fixed with 4% paraformaldehyde and embedded in paraffin, which was further cut into […] sections. To evaluate cellular apoptosis in kidney, a kidney section was stained using a TUNEL assay kit-HRP-DAB (ab206386; abcam, Cambridge, UK) according to the manufacturer's protocols.

In a further data set the test system is U87MG cells. Description: Cellular cytotoxicity, Cell Counting Kit-8 (CCK-8) assay. Type of data set: cell-based, Human. To be noted: 72 h. The procedure:
as §1, §2
(2) To execute cellular cytotoxicity experiments of HSA bound with CDDPs in different numbers, U87MG cells were added to a 96-well plate (4000 cells/well) and incubated overnight. […] Cell viability was analyzed using a Cell Counting Kit-8 (CCK-8, Dojindo Molecular Technologies, Tokyo, Japan) assay according to the manufacturer's protocols.

For another data set, the system named is U87MG tumors. Briefly: Tumor CDDP accumulation using ICP-MS. Type of data set: in vivo, mice. The conditions noted are these: 72 h after last of 7 IV doses, FIG. 6B. The method, then:
For tumor CDDP distribution, U87MG or U87MG-shSPARC cells (2×10^6 cells/site) were injected subcutaneously into the right lower flanks. […] At 72 h after the last IV administration (15 days after first administration), mice were euthanized, and the tumor was acquired.
All samples (organs, blood, and tumors) were lyophilized and we analyzed the amount of CDDP using the ICP-MS (NexION 350; Perkin-Elmer, Waltham, MA, USA) installed at the National Center for Inter-university Research Facilities (NCIRF) at Seoul National University.

Data set [2] is described as follows: Biosafety: body weight and blood biochemical analysis. Type of data set: in vivo, mice. The method, then: After centrifugation at 4° C. for 20 min, the plasma was collected for blood biochemical analysis. The concentrations of AST, ALT, BUN, and creatinine were analyzed at DKKorea (Seoul, Korea).
Data set [3] is described as follows: Histopathology examination, H&E staining. Type of data set: in vivo. To be noted: drug-treated mice, FIG. 7B. The text has this: The kidney, liver, and spleen of the drug-treated mice were acquired and fixed with 4% paraformaldehyde. Tissues were embedded in paraffin and stained with hematoxylin and eosin (H&E). H&E staining images were acquired using an optical microscope (Olympus BX43, Tokyo, Japan).

Data set [4] has as its system U87MG-shSPARC tumor xenograft. Briefly: Xenograft tumor model, anti-tumor effect in vivo. Further details: species or system BALB/c nude mice. The method, then: All animal studies were performed under approval from the Seoul National University Institutional Animal Care and Use Committee (IACUC No. 18-0231, 1 Nov. 2018). BALB/c nude mice (5-week-old, male) were purchased from Orient Bio Inc. (Seongnam, Korea). U87MG or U87MG-shSPARC cells (2×10^6 cells/site) were injected subcutaneously into the right lower flanks.
as §3

As to `N.N.[Cl][Pt][Cl]` [CDDP, cis-diamine dichloroplatinum (II)], the IC50 in the data set with U87MG-shSPARC cells was 2.65 ± 0.13 µM; in the data set with U87MG cells (CCK-8, n=5, Table 1), 2.54 ± 0.135 µM; with U87MG cells (CCK-8, n=6, Table 2 (CDDP number-dependent HSA)), 4.72 ± 0.11 µM. Moreover, the survival rate entry was “prolonged survival time than the PBS group” in the data set on U87MG tumor xenograft (U87MG tumor model vs PBS group, FIG. 5E) and “prolonged survival” in data set [4] (U87MG-shSPARC tumor model vs PBS group, FIG. 5F). The tumor growth entry in the data set on U87MG tumor xenograft (U87MG tumor model, 12 days after first drug treatment, 3 mg/kg CDDP equivalent IV every other day 7 times, p<0.001) is listed as “significantly reduced tumor growth than the PBS group”; in data set [4] (U87MG-shSPARC tumor model, 26 days after first drug treatment, 3 mg/kg CDDP equivalent IV every other day 7 times), “significantly reduced tumor growth than the PBS group”. The Median survival in the data set on U87MG tumor xenograft (U87MG tumor xenograft model, 3 mg/kg CDDP equivalent IV 7 times) came out at 22 days; in data set [4] (U87MG-shSPARC tumor xenograft model, 3 mg/kg CDDP equivalent IV 7 times), 42 days. Further, the values for the weight of mice result with U87MG tumor xenograft and in the data set on U87MG tumor xenograft (listed as CCDP) were “significantly decreased” and “significant weight loss compared to the group treated with PBS”, respectively. Also, the “TUNEL positive cells in kidney” value in data set [1] was “TUNEL positive cells were only identified in the kidney of CDDP-treated mice”. Further, the “accumulation of CDDP, U87MG vs U87MG-shSPARC tumors” value in the data set on U87MG tumors was “no difference in CDDP accumulation between U87MG and U87MG-shSPARC”. Besides, the body weight entry in data set [2] (72 h after final treatment (every other day, seven times), FIG. 7A) is “significant body weight loss compared to the PBS and HSA-CDDP groups”. Moreover, the “blood urea nitrogen (BUN)” value in data set [2] (kidney function, 72 h after final treatment) was “increased”. Moreover, in data set [3], the “H&E staining of kidney tissue” value is on record as “tubular degeneration; also recorded: extensive epithelial vacuolization; also recorded: degeneration of renal tubules; also recorded: vacuolation of epithelial cells”.

(Values after US20240148836A1, “COMPOSITION FOR TREATING CANCER EXPRESSING SPARC” (SEOUL NATIONAL UNIVERSITY R&DB FOUNDATION, priority 2021, published 2024).)
